Like-named read-outs stand apart in the source and are kept apart here.
How the values were obtained:
[1] = Buffer capacity by titration to pH 6 with 0.1N hydrochloric acid; assay type: physicochemical
Excerpt: (§1) The example compares performance of compositions of the instant invention with sodium bicarbonate, with regard to original pH, and amount of acid buffered to pH 6. One gram of buffering agent was mixed with 100 grams water and titrated to pH 6 by 0.1N hydrochloric acid.

[2] = pH of buffering agent in water; assay type: physicochemical
Excerpt: Materials frequently used in the art to buffer digestive fluids are sodium bicarbonate and magnesium oxide. […] Over-treatment with buffer may be caused by errors in estimates of animal size, and the composition of the digestive fluid and by errors in measuring the amounts of the buffering material.
as §1

[3] = tested on: rumen juices of a ruminant animal; conditions: steer, 50 lbs/day ration, three days on ration
Description: A ruminating steer weighing about 1100 pounds which had been fistulated so that rumen fluid samples could be withdrawn as desired for pH measurement was used in experiments in which the steer was fed a constant high energy ration typical of a finishing feedlot ration. The only change in the rations were in the types and amounts of buffering agent used. The buffering agents were blended into the feed ration prior to its use. The fistulated steer received the same buffered feed ration for three days prior to sampling the rumen fluid and determining pH.

[4] = tested on: newly hatched broiler chicks; assay: 21-day broiler chick feeding test of phosphorus bioavailability and weight gain; assay type: in vivo; conditions: 21 days
Description: The tests were conducted at a University Test Facility starting with newly hatched broiler chicks. The test was carried out over a 21-day period. Weight gain was measured in each group of 10 chicks. Also measured at the end of the test were weight gain/weight of feed, weight percent ash in the tibia, and the relative bioavailability.
Measurements were made comparing the results obtained with the test material and the Standard NRC technical grade hydrous dibasic calcium phosphate.

| Buffer Capacity m.eg. of HCl brought to pH per gram compound ([1]; 1 gram in 100 grams water, titrated to pH 6 by 0.1N hydrochloric acid) | speed of changes in pH when combined with aqueous acid ([1]; during titration with 0.1N hydrochloric acid) | pH of Buffer 5% in H2O [2] | Molecule | pH of Rumen Sample ([3]; buffer amount 0.5/1.00 lbs/%) | pH of Rumen Sample ([3]; buffer amount 0.8/1.60 lbs/%) | Ash Content of Tibia, Wt % ([4]; Added P in feed 0.15 Wt %) | Avg. Wt. Gain, Gms ([4]; Added P in feed 0.15 Wt %) | Wt. Gain, gms per grm feed ([4]; Added P in feed 0.15 Wt %) | Ash Content of Tibia, Wt % ([4]; Added P in feed 0.25 Wt %) | Avg. Wt. Gain, Gms ([4]; Added P in feed 0.25 Wt %) | Wt. Gain, gms per grm feed ([4]; Added P in feed 0.25 Wt %) | Ash Content of Tibia, Wt % ([4]; Added P in feed 0.35 Wt %) | Avg. Wt. Gain, Gms ([4]; Added P in feed 0.35 Wt %) | Wt. Gain, gms per grm feed ([4]; Added P in feed 0.35 Wt %) |
| --- | --- | --- | --- | --- | --- | --- | --- | --- | --- | --- | --- | --- | --- | --- |
| 10.0 m.eg. of HCl per gram compound | about instant | 9.0 | O=C([O-])O.[Na+] [NaHCO3, sodium bicarbonate] | 6.7 | 7.4 | – | – | – | – | – | – | – | – | – |
| – | – | – | hydrous dibasic calcium phosphate [Standard Phosphorus Source] | – | – | 40.5 Wt % | 639.6 Gms | 0.688 gms per grm feed | 41.5 Wt % | 664.6 Gms | 0.725 gms per grm feed | 42.5 Wt % | 667.7 Gms | 0.722 gms per grm feed |

Reference: US6451361B1, “Alkali metal magnesium phosphate hydrate buffering feed mineral” (Agri-Nutrients Technology Group, Inc., priority 2001, dated 2002)
